# Measurements taken from EP0771187B1, “NOVEL COMBINATION PRODUCT COMPRISING AN ANTIFUNGAL AGENT AND CROTAMITON AS AN ANTIFUNGAL ACTIVITY ENHANCER AND DERMATOLOGICAL OR COSMETIC COMPOSITIONS COMPRISING SAME” (Pierre Fabre Dermo-Cosmetique, priority 1994, dated 1996).
# Columns and labels:
# Type in all cases: cell-based
# [1] = system: Pityrosporium ovale sauvages dont une éco-R; test: Fungicidal activity: checkerboard combined with Afnor membrane filtration, 5 min contact (Example 1); details: pH about 8, read-out: Mg : moyenne géométrique du Log 10 de la réduction du nombre de germes; for log reduction at 2 %: product alone at 2 % (m/v); for log reduction at 4 %: product alone at 4 % (m/v)
# Description: CMF définissant la concentration minimale de fongicide pour laquelle on obtient une diminution de 4.Log 10 de l'inoculum ensemencé en 5 minutes de contact à 20°C.
# Des souches de Malassezia furfur (Pityrosporum ovale) ont été testées pour leur sensibilité vis-à-vis des principes actifs seuls ou bien en association selon l'invention.
# Les souches sont issues du Laboratoire de Parasitologie du Centre Hospitalier Régional de Rangueil de TOULOUSE (France) et une souche est éconazole résistante (éco-R). Elles ont été cultivées lors des essais sur milieu Dixon solide.
# (§1) La technique utilisée est originale car elle utilise à la fois le principe de la technique de l'échiquer et celui de la norme Afnor par filtration sur membrane relative à la fongicidie avec un temps de contact germe-molécules de 5 minutes.
# (§2) C'est une macro-méthode qui a donc été réalisée ici avec validations à chaque essai du témoin solvant des molécules (Tween® 20 %, éthanol 17 % dans l'eau distillée).
# Ce solvant inhibe légèrement l'activité de la ciclopiroxolamine, et il faut donc s'attendre à de meilleurs résultats en pratique. Les autres témoins sont celui de la vigueur de la souche et de l'efficacité des produits seuls, soit : - ciclopiroxolamine 4 % - crotamiton 4 %
# Le tableau 1 représente les moyennes géométiques de la réduction logarithmique sur deux Pityrosporium ovale sauvages dont une éco-R, le nombre d'essais ainsi que le pourcentage d'efficacité.
# La norme Afnor considère qu'il y a fongicidie pour une réduction de 4 Log 10 de l'inoculum après 15 minutes de contact.
# Le pH de l'ensemble de ces études se situe autour de 8.
# P. ovale éco-R = test: Fungicidal activity: checkerboard combined with Afnor membrane filtration, 5 min contact (Example 2, Table 2); details: Pityrosporium ovale, pH 9, read-out: Mg; for log reduction at 2 %: product alone at 2 %
# Description: as §1, §2
# (§3) L'association de l'octopirox avec le crotamiton a été testé selon la méthodologie de l'exemple 1 sur une souche Pityrosporium ovale éco-R et C. albicans ATCC 9021.
# Le tableau 2 représente les résultats obtenus sur P. ovale éco-R après cinq minutes de contact pour l'association : • crotamiton 1 % - octopirox 1 % pour lequel nous avons 100 % d'efficacité • alors que les produits seuls à double ou quadruple concentrations sont moins actifs.
# (§4) Le même solvant a été utilisé et validé à chaque essai comme le spécifie la norme Afnor.
# (§5) Les essais de l'exemple 2 ont été réalisés avec un pH plus basique = 9.
# C. albicans ATCC 9021 = test: Fungicidal activity: checkerboard combined with Afnor membrane filtration, 5 min contact (Example 2, Table 3); details: Candida albicans, ATCC9021, 5 min, pH 9, read-out: Mg; for log reduction at 2 %: product alone at 2 %
# Description: as §1, §2, §3, §4
# Ces Résultats ont été confirmés sur une levure de référence Afnor (C.albicans ATCC 9021). Les résultats sont reportés dans le tableau 3.
# as §5
Compound,log reduction at 1 % ([1]; product alone at 1 % (m/v)),log reduction at 2 % [1],log reduction at 4 % [1],log reduction at 2 % (P. ovale éco-R),log reduction at 4 % (P. ovale éco-R; product alone at 4 %),log reduction at 2 % (C. albicans ATCC 9021),log reduction at 4 % (C. albicans ATCC 9021; product alone at 4 %),log reduction at 1 % (C. albicans ATCC 9021; product alone at 1 %)
"CC=CC(=O)N(CC)c1ccccc1C [Crota, N-éthyl-N-O-tolylcrotonamide]",0.03,0.77,3.77,1.59,3.26,2.43,4.95,–
"Cc1cc(CC(C)CC(C)(C)C)n(O)c(=O)c1 (stereo not drawn) [Octo, octopirox]",–,–,–,1.85,–,3.18,–,0.36
"Cc1cc(C2CCCCC2)n(O)c(=O)c1 [CPO, ciclopirox olamine]",–,0.43,2.05,–,–,–,–,–
